Assay results taken from PubChem BioAssay (NCI).
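Test compounds were applied to cells in 96-well plates for 48 hours at 5 doses. The concentration for full growth arrest is given as TGI.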

Columns and labels:
Assay in all cases: growth of human tumour cells (NCI), 48 h
LOX IMVI melanoma = system: LOX IMVI melanoma
DLD-1 colon = system: DLD-1 colon
HCT-15 colon = system: HCT-15 colon
EKVX NSCLC = system: EKVX NSCLC
M19-MEL melanoma = system: M19-MEL melanoma
HOP-92 NSCLC = system: HOP-92 NSCLC
SN12C renal = system: SN12C renal
K-562 leukemia = system: K-562 leukemia
SF-295 CNS = system: SF-295 CNS
HL-60(TB) leukemia = system: HL-60(TB) leukemia
HOP-62 NSCLC = system: HOP-62 NSCLC
KM12 colon = system: KM12 colon
MOLT-4 leukemia = system: MOLT-4 leukemia
TK-10 renal = system: TK-10 renal
UACC-62 melanoma = system: UACC-62 melanoma
786-0 renal = system: 786-0 renal
LXFL 529 NSCLC = system: LXFL 529 NSCLC
SNB-75 CNS = system: SNB-75 CNS
U251 CNS = system: U251 CNS
NCI-H522 lung = system: NCI-H522 lung
KM20L2 colon = system: KM20L2 colon
OVCAR-3 ovarian = system: OVCAR-3 ovarian
SF-539 CNS = system: SF-539 CNS
UACC-257 melanoma = system: UACC-257 melanoma
MALME-3M melanoma = system: MALME-3M melanoma
HT29 colon = system: HT29 colon
SR leukemia = system: SR leukemia
A549 NSCLC = system: A549 NSCLC
SK-MEL-28 melanoma = system: SK-MEL-28 melanoma
CCRF-CEM leukemia = system: CCRF-CEM leukemia
SK-MEL-2 melanoma = system: SK-MEL-2 melanoma
UO-31 renal = system: UO-31 renal
RXF 393 renal = system: RXF 393 renal
OVCAR-5 ovarian = system: OVCAR-5 ovarian
OVCAR-8 ovarian = system: OVCAR-8 ovarian
SK-MEL-5 melanoma = system: SK-MEL-5 melanoma
M14 melanoma = system: M14 melanoma
HCT-116 colon = system: HCT-116 colon
NCI-H460 lung = system: NCI-H460 lung
IGROV1 ovarian = system: IGROV1 ovarian
HCC-2998 colon = system: HCC-2998 colon
HOP-18 NSCLC = system: HOP-18 NSCLC
NCI-H23 lung = system: NCI-H23 lung
SW-620 colon = system: SW-620 colon
OVCAR-4 ovarian = system: OVCAR-4 ovarian
XF 498 CNS = system: XF 498 CNS
ACHN renal = system: ACHN renal
SK-OV-3 ovarian = system: SK-OV-3 ovarian

Measured: TGI

O=[N+]([O-])C1(CO)COC(CCc2ccccc2)OC1 (stereo not drawn)
> 100 µM: all assays above
